In brackets after ≈: the same amount, converted by molar mass. Several values for one entry are separate records, joined by “and”; a condition that tells them apart may be missing. Identical values can stand only once.
Tests used:
[1] = target: T1, Peptide deformylase (Escherichia coli, UniProt Q9JN24); experiment: Inhibitory activity against Escherichia coli peptide deformylase (PDF) Nickel containing enzyme
T1 sequence (Q9JN24 whole entry): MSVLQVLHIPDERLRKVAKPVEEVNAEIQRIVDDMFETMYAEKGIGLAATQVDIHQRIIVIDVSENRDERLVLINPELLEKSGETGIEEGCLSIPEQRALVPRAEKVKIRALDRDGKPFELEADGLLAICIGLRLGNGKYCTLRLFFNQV

[2] = system: Streptococcus pneumoniae; experiment: Minimum inhibitory concentration required for primary screening against in-house strain of Streptococcus pneumoniae tested in vitro; Range- <0.125-0.25; format: functional
[3] = system: Moraxella catarrhalis; experiment: Minimum inhibitory concentration required for primary screening against in-house strain of Moraxella catarrhalis tested in vitro; format: functional
[4] = system: Haemophilus influenzae; experiment: Minimum inhibitory concentration required for primary screening against in-house strain of Haemophilus influenzae tested in vitro; Range- 0.25-2; format: functional
[5] = system: Moraxella catarrhalis; experiment: Minimum inhibitory concentration required for primary screening against in-house strain of Moraxella catarrhalis tested in vitro; Range- 0.008-0.12; format: functional
[6] = system: Streptococcus pneumoniae; experiment: Minimum inhibitory concentration required for primary screening against in-house strain of Streptococcus pneumoniae tested in vitro; Range- 0.008-1; format: functional
[7] = system: Haemophilus influenzae; experiment: Minimum inhibitory concentration required for primary screening against in-house strain of Haemophilus influenzae tested in vitro; Range- 0.12-16; format: functional
[8] = system: Streptococcus pneumoniae; experiment: Minimum inhibitory concentration required for primary screening against in-house strain of Streptococcus pneumoniae tested in vitro; Range- 0.5-1; format: functional
[9] = system: Haemophilus influenzae; experiment: Minimum inhibitory concentration required for primary screening against in-house strain of Haemophilus influenzae tested in vitro; Range- 0.5-2; format: functional
[10] = system: Streptococcus pneumoniae; experiment: Minimum inhibitory concentration required for primary screening against in-house strain of Streptococcus pneumoniae tested in vitro; Range- 0.25-0.5; format: functional
[11] = system: Staphylococcus capitis; experiment: Minimum inhibitory concentration required for primary screening against in-house strain of Staphylococcus capitis tested in vitro; format: functional
[12] = system: Streptococcus pneumoniae; experiment: Minimum inhibitory concentration required for primary screening against in-house strain of Streptococcus pneumoniae tested in vitro; format: functional
[13] = system: Haemophilus influenzae; experiment: Minimum inhibitory concentration required for primary screening against in-house strain of Haemophilus influenzae tested in vitro; Range- 0.5-4; format: functional
[14] = system: Moraxella catarrhalis; experiment: Minimum inhibitory concentration required for primary screening against in-house strain of Moraxella catarrhalis tested in vitro; Range = 0.125-0.25; format: functional
[15] = system: Streptococcus pneumoniae; experiment: Minimum inhibitory concentration required for primary screening against in-house strain of Streptococcus pneumoniae tested in vitro; Range- 0.25-1; format: functional
[16] = system: Moraxella catarrhalis; experiment: Minimum inhibitory concentration required for primary screening against in-house strain of Moraxella catarrhalis tested in vitro; Range- 0.125-0.25; format: functional
[17] = system: Haemophilus influenzae; experiment: Minimum inhibitory concentration required for primary screening against in-house strain of Haemophilus influenzae tested in vitro; Range- 2-4; format: functional
[18] = system: Haemophilus influenzae; experiment: Minimum inhibitory concentration required for primary screening against in-house strain of Haemophilus influenzae tested in vitro; Range- 0.125-2; format: functional
[19] = system: Streptococcus pneumoniae; experiment: Minimum inhibitory concentration required for primary screening against in-house strain of Streptococcus pneumoniae tested in vitro; Range- 0.25-2; format: functional
[20] = system: Haemophilus influenzae; experiment: Minimum inhibitory concentration required for primary screening against in-house strain of Haemophilus influenzae tested in vitro; Range- 0.5-1; format: functional
[21] = system: Haemophilus influenzae; experiment: Minimum inhibitory concentration required for primary screening against in-house strain of Haemophilus influenzae tested in vitro; Range- 0.06->/=16; format: functional
[22] = system: Moraxella catarrhalis; experiment: Minimum inhibitory concentration required for primary screening against in-house strain of Moraxella catarrhalis tested in vitro; Range- 0.015-0.12; format: functional
[23] = system: Escherichia coli; experiment: Minimum inhibitory concentration required for primary screening against in-house strain of Escherichia coli tested in vitro; format: functional
[24] = system: Haemophilus influenzae; experiment: Minimum inhibitory concentration required for primary screening against in-house strain of Haemophilus influenzae tested in vitro; Range- 0.125-4; format: functional
[25] = system: Streptococcus pneumoniae; experiment: Minimum inhibitory concentration required for primary screening against in-house strain of Streptococcus pneumoniae tested in vitro; Range- 0.25-0.5
[26] = system: Moraxella catarrhalis; experiment: Minimum inhibitory concentration required for primary screening against in-house strain of Moraxella catarrhalis tested in vitro; Range = 0.015-0.12; format: functional
[27] = system: Haemophilus influenzae; experiment: Minimum inhibitory concentration required for primary screening against in-house strain of Haemophilus influenzae tested in vitro; Range- 0.06-8; format: functional
[28] = system: Streptococcus pneumoniae; experiment: Minimum inhibitory concentration required for primary screening against in-house strain of Streptococcus pneumoniae tested in vitro; Range- 2->8; format: functional
[29] = system: Streptococcus pneumoniae; experiment: microbe, parasite or virus in culture
Description: Minimum inhibitory concentration required for primary screening against in-house strain of Streptococcus pneumoniae tested in vitro; Range- 0.2-128

[30] = system: Moraxella catarrhalis; experiment: microbe, parasite or virus in culture
[31] = system: Haemophilus influenzae; experiment: microbe, parasite or virus in culture
Description: Minimum inhibitory concentration required for primary screening against in-house strain of Haemophilus influenzae tested in vitro; Range- 0.004-1

[32] = system: Streptococcus pneumoniae; experiment: Minimum inhibitory concentration required for primary screening against in-house strain of Streptococcus pneumoniae tested in vitro; Range-0.008-2; format: functional

Structure (SMILES): CCCC[C@H](CN(O)C=O)C(=O)N[C@H](C(=O)c1ccc(N2CCOCC2)cc1)C(C)(C)C
- IC50 [1]: 5 nM

Structure (SMILES): CC(C)(C)[C@H](NC(=O)[C@H](CC1CCCC1)CN(O)C=O)C(=O)c1ccc(N2CCC[C@H]2CO)cc1
- MIC [2]: < 0.25 mg/L
- IC50 [1]: 7 nM
- MIC [3]: < 0.125 mg/L
- MIC [4]: < 2 mg/L

Structure (SMILES): CC1(C)S[C@@H]2[C@H](NC(=O)[C@H](N)c3ccc(O)cc3)C(=O)N2[C@H]1C(=O)O.O=C(O)[C@H]1/C(=C/CO)O[C@@H]2CC(=O)N21
- MIC90 [5]: 0.12 mg/L
- MIC90 [6]: 1 mg/L
- MIC90 [7]: 1 mg/L

Structure (SMILES): CC(C)(C)[C@H](NC(=O)[C@H](CC1CCCC1)CN(O)C=O)C(=O)c1cc(F)c(F)cc1N1CCN(CCO)CC1
- IC50 [1]: 2 nM
- MIC [8]: < 1 mg/L
- MIC [3]: < 0.125 mg/L
- MIC [4]: < 2 mg/L

Structure (SMILES): CC(C)(C)[C@H](NC(=O)[C@H](CC1CCCC1)CN(O)C=O)C(=O)c1ccc(N2CCN(CCN3CCOCC3)CC2)cc1
- MIC [9]: < 2 mg/L
- IC50 [1]: 2 nM
- MIC [3]: < 0.125 mg/L
- MIC [10]: < 0.5 mg/L

Structure (SMILES): CCCC[C@H](CN(O)C=O)C(=O)N[C@H](C(=O)c1ccc(N)cc1)C(C)(C)C
- IC50 [1]: 8 nM
- MIC [11]: 12 µM (≈ 4.53 µg/mL)

Structure (SMILES): CC(C)(C)[C@H](NC(=O)[C@H](CC1CCCC1)CN(O)C=O)C(=O)c1cc(F)c(F)cc1N1CCC[C@H]1CO
- MIC [9]: < 2 mg/L
- MIC [3]: < 0.125 mg/L
- MIC [12]: 0.25 mg/L (≈ 0.477 µM)

Structure (SMILES): CCCC[C@H](CN(O)C=O)C(=O)N[C@H](C(=O)c1ccco1)C(C)(C)C
- IC50 [1]: 5 nM

Structure (SMILES): CCCC[C@H](CN(O)C=O)C(=O)N[C@H](C(=O)c1ccc(O)cc1)C(C)(C)C
- IC50 [1]: 8 nM

Structure (SMILES): CC(C)(C)[C@H](NC(=O)[C@H](CC1CCCC1)CN(O)C=O)C(=O)c1cc(F)c(F)cc1N1CCN(CCN2CCCC2)CC1
- MIC [13]: < 4 mg/L
- MIC [14]: < 0.25 mg/L
- IC50 [1]: 2 nM
- MIC [10]: < 0.5 mg/L

Structure (SMILES): CC(C)(C)[C@H](NC(=O)[C@H](CC1CCCC1)CN(O)C=O)C(=O)c1cc(F)c(F)cc1N1CCN(CCN2CCOCC2)CC1
- MIC [15]: < 1 mg/L
- MIC [16]: < 0.25 mg/L
- IC50 [1]: 2 nM
- MIC [17]: < 4 mg/L

Structure (SMILES): CC(C)(C)[C@H](NC(=O)[C@H](CC1CCCC1)CN(O)C=O)C(=O)c1ccc(N2CCC[C@H]2CO)c(F)c1
- IC50 [1]: 2 nM
- MIC [3]: < 0.125 mg/L
- MIC [12]: 0.25 mg/L (≈ 0.494 µM)
- MIC [18]: < 2 mg/L

Structure (SMILES): CC(C)(C)[C@H](NC(=O)[C@H](CC1CCCC1)CN(O)C=O)C(=O)c1ccc(N2CCOCC2)cc1
- MIC90 [19]: < 2 mg/L
- MIC [20]: < 1 mg/L
- MIC90 [21]: 4 mg/L (≈ 8.45 µM)
- IC50 [1]: 6 nM and 2 nM
- MIC [11]: 1.5 µM (≈ 0.71 µg/mL)
- MIC [3]: 0.125 mg/L (≈ 0.264 µM)
- MIC90 [22]: 0.12 mg/L (≈ 0.253 µM)
- MIC [10]: < 0.5 mg/L
- MIC [23]: 12.5 µM (≈ 5.92 µg/mL)

Structure (SMILES): CC(C)(C)[C@H](NC(=O)[C@H](CC1CCCC1)CN(O)C=O)C(=O)c1ccc(N2CCN(CCN3CCOCC3)CC2)c(F)c1
- MIC [24]: < 4 mg/L
- IC50 [1]: 6 nM
- MIC [3]: 0.125 mg/L (≈ 0.207 µM)
- MIC [10]: < 0.5 mg/L

Structure (SMILES): CC(C)(C)[C@H](NC(=O)[C@H](CC1CCCC1)CN(O)C=O)C(=O)c1ccc(N2CCN(CCN3CCCC3)CC2)cc1
- MIC [16]: < 0.25 mg/L
- MIC [9]: < 2 mg/L
- IC50 [1]: 3 nM
- MIC [25]: < 0.5 mg/L

Structure (SMILES): CCCC[C@H](CN(O)C=O)C(=O)N[C@H](C(=O)c1ccc(C#N)cc1)C(C)(C)C
- IC50 [1]: 7 nM
- MIC [11]: 3.1 µM (≈ 1.2 µg/mL)
- MIC [23]: 6.25 µM (≈ 2.42 µg/mL)

Structure (SMILES): CCCC[C@H](CN(O)C=O)C(=O)N[C@H](C(=O)c1ccc(NC(=O)C(F)(F)F)cc1)C(C)(C)C
- IC50 [1]: 20 nM

Structure (SMILES): CCCC[C@H](CN(O)C=O)C(=O)N[C@H](C(=O)N(C)C)C(C)(C)C
- MIC90 [26]: 0.12 mg/L (≈ 0.364 µM)
- MIC90 [27]: 2 mg/L (≈ 6.07 µM)
- MIC90 [28]: > 16 mg/L

Structure (SMILES): CCCC[C@H](CN(O)C=O)C(=O)N[C@H](C(C)=O)C(C)(C)C
- MIC [11]: 100 µM (≈ 30 µg/mL)
- MIC [23]: 25 µM (≈ 7.51 µg/mL)

Structure (SMILES): O=C(O)c1cn(C2CC2)c2cc(N3CCNCC3)c(F)cc2c1=O [CIPROFLOXACIN]
- MIC90 [29]: 8 mg/L (≈ 24.1 µM)
- MIC90 [30]: 0.06 mg/L (≈ 0.181 µM)
- MIC90 [31]: 0.015 mg/L (≈ 0.0453 µM)

Structure (SMILES): CC1(C)S[C@@H]2[C@H](NC(=O)Cc3ccccc3)C(=O)N2[C@H]1C(=O)[O-].[Na+] [PENICILLIN G SODIUM]
- MIC90 [32]: 1 mg/L

Source: ChEMBL document CHEMBL1137072, “Peptide deformylase inhibitors with activity against respiratory tract pathogens” (Bioorg Med Chem Lett, 2004)
